Test results from publication PMC9108603, “Microbial Metabolite Inspired β‐Peptide Polymers Displaying Potent and Selective Antifungal Activity” (Advanced Science, 2022).

Key:
[1] = tested on: Gram‐positive and Gram‐negative bacteria; assay: Antibacterial MIC test, summary over six bacteria; assay type: cell-based; conditions: S. aureus, S. epidermidis, B. subtilis, E. coli, A. baumannii, K. pneumoniae
Text: aforementioned antifungal assay. Gram-positive bacteria ( S. aureus ATCC 6538, S.

[2] = tested on: C. albicans (K1 strain); assay: DNA fragmentation assay (TUNEL); assay type: cell-based, Candida albicans; conditions: 50 μg/mL PDAP20, 8 h, 3.0 × 10^6 CFU/mL; late stage of apoptosis
Experimental: NAC concentration without affecting the normal cell growth. Wells containing cells in RPMI and 40 mM H 2O2 was used as positive controls. Cell suspension of C. albicans (K1 strain) at 6.0 × 10^6 CFU/mL was treated with 20 μM 2,7-dichlorodi-hydrofluorescein diacetate (DCFHDA) for 20 min. Then 50 µL of the cell suspension was added to each well, except the blank control (RMPI containing DCFHDA without cells). The fluorescence intensity of the induced ROS production was measured every 30 min using a plate reader at λ ex = 485 nm and λem = 530 nm. […]
Detection of mitochondrial membrane potential. Changes in mitochondrial membrane potential in C. albicans after incubation with PDAP 20 were analyzed using JC-1 as previously described. Mitochondrial membrane potential was detected with the fluorescent dye JC-1, which exists as aggregates (red) in normal cells with polarized mitochondria, whereas exists as monomers (green) in apoptotic cells with depolarized mitochondria. […]
DNA fragmentation assay. Apoptosis induced DNA fragments in C. albicans cells were analyzed using the TdT-mediated dUTP Nick-End Labeling (TUNEL) method. […]
fresh non-treated cell suspension was used as a control. The bright field and FITC fluorescence were collected under 100× oil immersion lenses, with representative areas in the images electronically amplified sixfold. […]

poly(DL‐diaminopropionic acid) [PDAP20]
MIC against the six bacteria (summary) [1]: greater than 50 µg mL^−1 | DNA fragmentation, TUNEL [2]: strong green cytosol fluorescence
